Patent publication US20250179024A1, “AMYLOID AND ASSOCIATED PATHOLOGY MODULATORS AND METHODS THEREOF” (Jawaharlal Nehru Centre for Advanced Scientific Research, priority 2022, published 2025)

Experiments:
[1] = target: T1, Aβ in the presence of Zn (II) (Homo sapiens, UniProt P05067); assay: Zn-dependent Aβ aggregation, native PAGE and western blot; format: biochemical; conditions: Aβ 10 μM, Zn (II) 20 μM, NMIs 20 μM, 37° C., 48 h
T1 construct: is a 42 amino acid proteolytic product from the amyloid precursor protein; purchased Invitrogen
Experimental: The samples were prepared by incubating Aβ42 with specific concentration of NMI compounds of present disclosure and metal ions for 48 h and then subjected to 6% native polyacrylamide gel electrophoresis (Native-PAGE) in tris-glycine buffer. The lower molecular weight aggregates permeabilized through the gel and resolved in the gel. Higher molecular aggregates stuck in the upper part of wells and potentially carried in gel. Then the protein was transferred to PVDF membrane for 4 h at cold condition maintained using ice cold transfer buffer and immersing the transfer apparatus in ice. Then the blots were continued similar to dot blots.
The absorbance and fluorescence spectroscopy studies together with mass spectrometry data confirmed the selective Cu (II) or Zn (II) chelation property of M1 and M3. […] Aβ (10 μM) was incubated in the presence of Cu (II) or Zn (II) (20 μM) with NMIs at 37° C. for 48 h and the samples were subjected to native PAGE and western blot analysis. […] Modulation of Zn-dependent Aβ aggregation by M4 was attributed to its two Zn (II) chelation centres. M3 with dopamine and DPA moieties effectively modulated both Cu (II) and Zn (II)-dependent Aβ aggregation. The effect of NMIs on the morphological outcome of metal-dependent Aβ aggregation was visualized by AFM imaging (FIGS. 1E and 1F). Aβ in the presence of Cu (II) and Zn (II) formed dense and thick fibrils.

[2] = tested on: C6 microglial cells; assay: Bio-AFM study of microglial activation; format: cell-based; conditions: Aβ 5 μM, compound 10 μM
Experimental: Microglia activation and its alleviation was studied by Bio-AFM technique combining the indirect immunofluorescence by confocal microscopy and cellular mechanical properties characterization by AFM. C6 microglia was used as model cells and Aβ as pathological stimuli for the study. C6 cells were cultured in glass bottom confocal dishes to attain 70% confluence. The cells were primed to activation by using 500 ng/mL of LPS in low serum media (2.5% FBS). Then microglial cells were treated with 5 μM Aβ42 alone and with NMIs (M3) for 18 h. Then the cells were fixed and probed for Iba1 marker by indirect immunofluorescence, counter stained with Phalloidin rhodamine (200 nM) for actin labeling to visualize the actin distribution and DAPI (1 μM) for labeling the nucleus. The samples were washed thrice using dPBS and subjected to Bio-AFM imaging.
The Bio-AFM studies were performed in Bioscope Resolve AFM integrated with Olympus Fluoview-3000 Confocal laser scanning microscope (Bruker). The original confocal stage was removed and replaced with the Bruker Bio-AFM stage. For the confocal images aspect ratio was fixed to 4:3 with channel size of 640×480 and 3-point calibration was done to obtain proper overlay and pixel scaling was optimized by setting 0.375 μ/pixel. Region of interest was selected in the confocal using 60× oil immersion objective (Olympus plan Apo N) and on selected region AFM probe was landed using MIROVIEW window. Peak Force Quantitative Nanomechanical Mapping (PF-QNM) in Fluid mode was used for imaging the cells wherein this mode works based on Peakforce tapping principle. From this mode, height, log DMT and adhesion force of the samples was recorded. The log DMT was calculated using Derjaguin, Muller, Toropov (DMT) model using the formula given below. Studies were performed using MLCT BIO-F probe made up of non-conductive silicon nitride, coated with reflective Au with spring constant of 0.60 N/m and tip radius of 20 nm. Images were recorded with scanning speed of 0.5 Hz with 512 samples per line. The confocal images were recorded in DAPI, Alex488 and rhodamine channels. AFM data was analyzed using NanoScope analysis software (1.9 version) and confocal images were analyzed using Image J. Ftip=4/3E*√Rd3+Fadh, where Ftip=Force on tip, Fadh=Adhesion force, R=Tip radius and d=Tip sample separation.
C6 microglial cells were used as model and Aβ as stimuli for microglial activation that mimics AD conditions. The C6 cells were primed with LPS (500 ng/mL) for 4 h followed by treatment with Aβ (5 μM) alone and with M3 (10 μM) for 18 h. The cells were stained for Iba1, actin (phalloidin-rhodamine) and nucleus (DAPI), and the samples were subjected to confocal and AFM imaging using integrated Bio-AFM instrument.

[3] = tested on: TNFα; assay: Western blot of TNFα in C6 microglia; format: cell-based; conditions: LPS 500 ng/mL, Aβ 5 μM, compound 10 μM; Aβ alone 2.35 fold
Experimental: Western blot analysis was performed to analyse the changes in the protein levels from cell lysates. SH-SY5Y and C6 cells were cultured to 80% confluence in T25 flask, trypsinised and seed into 12 well plate. The cells were cultured for 30 h and then treated with LPS (500 ng/mL) in low serum media for 6 h. Then the cells were treated with Aβ42 (5 μM) alone and with NMIs (M3) (10 μM) for 18 h. The cells were harvested by trypsinisation and the protein was extracted in RIPA lysis buffer with protease inhibitor cocktail (1×). Briefly cells were washed with dPBS and lysed in […] of RIPA lysis buffer with gentle shaking in 4° C. for 30 min. Then the cells were centrifuged at 16000 g for 20 min and the supernatant containing protein was collected and quantified by Bradford assay. The protein lysate was subjected to SDS-PAGE (12% resolving gel) and transferred to PVDF membrane. The blot paper was blocked with 5% skim milk powder for 1 h at room temperature and then washed thrice with TBST. The blots were incubated with primary antibodies for 20 h at 4° C. The blots were washed thrice with TBST for 5 min and then incubated with anti-rabbit HRP-conjugated secondary antibodies for 1 h at room temperature. […] All the western blots were quantified by using ImageJ, data was plotted and analysed by GraphPad prism5. […]

T1 sequence (P05067 672-713 limits assumed): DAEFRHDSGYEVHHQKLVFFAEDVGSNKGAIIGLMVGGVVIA

With `O=C1c2cccc3c(N(Cc4ccccn4)Cc4ccccn4)ccc(c23)C(=O)N1CCc1ccc(O)c(O)c1` [M3, 6-(bis(pyridin-2-ylmethyl)amino)-2-(3,4-dihydroxyphenethyl)-1H-benzo[de]isoquinoline-1,3(2H)-dione] the “Zn-dependent Aβ aggregation” value [1] was “reduce Zn-dependent Aβ aggregation”, the “log DMT modulus (cellular stiffness)” value ([2]; Aβ treated ~2.06±0.20 Pa, control ~1.38±0.19 Pa) was roughly 1.32±0.15 and the height of microglial cells ([2]; activated ~5.13±0.29, control ~2.03±0.18) was roughly 3.03 µm. The adhesive force ([2]; activated ~5.30±0.24, control 3.21±0.23) was roughly 3.57±0.25 nN, the “Iba1 level compared to Aβ treated cells” value ([2]; LPS 500 ng/mL, 18 h) was “reduced significantly” and the “Iba1 localisation with actin” value ([2]; LPS 500 ng/mL, 18 h) was “reduced the Iba1 localisation with actin”. For the same compound, the “actin redistribution to the periphery of Aβ treated microglial cells” value ([2]; LPS 500 ng/mL, 18 h) was “reduced” and the “TNFα level in comparison to control” value [3] was 1.47 fold.
